Results from article PMC4025172 (Breast Cancer Research and Treatment, 2014).
Read-outs that look alike come from different tables or passages of the source. Marks after values point to notes of the source that are not given here.

Legend:
[1] = cited from earlier work
BC cells = details: depends on concentration and duration of action; cited from earlier work
[2] = test system: E3 receptor complex / E2 receptor complex; details: cited from earlier work
nuclear ER = details: cited from earlier work
[3] = format: in vivo, human; details: for AUC(0–24),C2: parameter not reliable; for AUC(0-t) / Cmax / concentration at -0.5 h / Tmax: serum, other: vaginal, 0.03 mg
[4] = cited from earlier work; remark: listed apart in the source
breast cancer = details: retrospective cohort study in Finland, postmenopausal patients; cited from earlier work
[5] = vaginal ring or tablets with E2, postmenopausal BC patients (no AI therapy)
[6] = after 4 weeks of daily application

## C[C@]12CC[C@@H]3c4ccc(O)cc4CC[C@H]3[C@@H]1CC[C@@H]2O [E2, estradiol]
[1]; vaginal administration of any dose of E2 in AI users, ref [3]–[14], [15]–[18]
  serum levels of E2: increases
[1]; [5]
  effect on vaginal atrophy: efficiently relieved vaginal atrophy
  serum levels of E2 and E1: temporarily raised
BC cells
  effect on BC cells in vitro: can stimulate
[2]
  nuclear retention time of the receptor complex: > 12 h

## C[C@]12CC[C@@H]3c4ccc(O)cc4CC[C@H]3[C@@H]1C[C@@H](O)[C@@H]2O [E3, estriol]
Nuclear ER
  affinity to the nuclear ER as compared to E2: 10 times lower
[3]; Visit C2 (day 28), maximum
  t max,C2: 8.0 h
  AUC(0–24),C2: 0.457 ng·h/mL
[3]; Visit C2 (day 28), minimum
  t max,C2: 4.0 h
  AUC(0–24),C2: <LLOQ
[3]; Visit C2 (day 28), minimum, LLOQ E3 10.00 pg/ml
  C max,C2: <LLOQ
[3]; Visit E (day 0), first application, maximum
  C max,E: 0.168 ng/mL
[3]; Visit E (day 0), maximum
  AUC(0–24),E: 0.378 ng·h/mL
  t max,E: 3.1 h
[3]; Visit E (day 0), minimum
  AUC(0–24),E: <LLOQ
  t max,E: 2.0 h
[3]; Visit E (day 0), minimum, LLOQ E3 10.00 pg/ml
  C max,E: <LLOQ
[3]; after 4 weeks
  women with slightly increased serum E3: 8 women
[3]; [6]
  patients without detectable increase of E3: 50%
  women whose highest detected E3 level was below 20 pg/ml: 25%
[3]; after the first application (visit E, day 0)
  women with transient increase in serum E3: 15 of 16
[3]; all visits, all except two subjects, LLOQ 10.00 pg/ml
  trough serum E3 levels: below LLOQ
[3]; female, human, AUC(0–24),C2, Visit C2 (day 28), mean, n=15, not reliable due to late metabolism and insufficient testing points
  AUC(0-t): 0.131 ng·h/mL
[3]; female, human, AUC(0–24),E, Visit E (day 0), GeoMean
  AUC(0-t): 0.154 ng·h/mL
[3]; female, human, AUC(0–24),E, Visit E (day 0), mean, n=16
  AUC(0-t): 0.212 ng·h/mL
[3]; female, human, AUC(0–24),E, Visit E (day 0), median
  AUC(0-t): 0.241 ng·h/mL
[3]; female, human, C max,C2, Visit C2 (day 28), GeoMean
  Cmax: 0.011 ng/mL
[3]; female, human, C max,C2, Visit C2 (day 28), mean, n=16
  Cmax: 0.0158 ng/mL
[3]; female, human, C max,C2, Visit C2 (day 28), median
  Cmax: 0.0091 ng/mL
[3]; female, human, C max,E, Visit E (day 0), GeoMean
  Cmax: 0.0882 ng/mL
[3]; female, human, C max,E, Visit E (day 0), mean, n=16
  Cmax: 0.104 ng/mL
[3]; female, human, C max,E, Visit E (day 0), median
  Cmax: 0.11 ng/mL
[3]; female, human, E3 baseline and trough, maximum, visit C1 (week 2)
  concentration at -0.5 h: 0.0492 ng/mL
[3]; female, human, E3 baseline and trough, maximum, visit C2 (week 4)
  concentration at -0.5 h: 0.0145 ng/mL
[3]; female, human, serum estriol (E3) concentration, Visit C2 (day 28), maximum, −0.5 h (pre-dose)
  concentration at -0.5 h: 0.0145 ng/mL
[3]; female, human, serum estriol (E3) concentration, Visit C2 (day 28), mean, −0.5 h (pre-dose)
  concentration at -0.5 h: 0.00091 ng/mL
[3]; female, human, serum estriol (E3) concentration, Visit C2 (day 28), median, −0.5 h (pre-dose)
  concentration at -0.5 h: 0 ng/mL
[3]; female, human, serum estriol (E3) concentration, Visit C2 (day 28), minimum, −0.5 h (pre-dose)
  concentration at -0.5 h: 0 ng/mL
[3]; female, human, serum estriol (E3) concentration, Visit E (day 0), maximum, −0.5 h (pre-dose)
  concentration at -0.5 h: 0 ng/mL
[3]; female, human, serum estriol (E3) concentration, Visit E (day 0), mean, −0.5 h (pre-dose)
  concentration at -0.5 h: 0 ng/mL
[3]; female, human, serum estriol (E3) concentration, Visit E (day 0), median, −0.5 h (pre-dose)
  concentration at -0.5 h: 0 ng/mL
[3]; female, human, serum estriol (E3) concentration, Visit E (day 0), minimum, −0.5 h (pre-dose)
  concentration at -0.5 h: 0 ng/mL
[3]; female, human, t max,C2, Visit C2 (day 28), mean, n=8
  Tmax: 7.2 h
[3]; female, human, t max,C2, Visit C2 (day 28), median
  Tmax: 7.9 h
[3]; female, human, t max,E, Visit E (day 0), mean, n=15
  Tmax: 2.5 h
[3]; female, human, t max,E, Visit E (day 0), median
  Tmax: 2.2 h
[3]; human, in vivo
  exposure (AUC0–24) at end of initial therapy compared with study entry: significantly lower
[3]; human, trough E3 serum concentration, one subject, visit C1
  concentration at -0.5 h: 0.0223 ng/mL
[3]; maximum, visit C1 (week 2)
  E3 baseline and trough: 49.20 pg/mL
[3]; maximum, visit C2 (week 4)
  E3 baseline and trough: 14.50 pg/mL
[3]; maximum, visit C3 (week 8)
  E3 baseline and trough: 0.00 pg/mL
[3]; maximum, visit C4 (week 12)
  E3 baseline and trough: 0.00 pg/mL
[3]; maximum, visit E (day 0, baseline)
  E3 baseline and trough: 0.00 pg/mL
[3]; mean (SD), visit C1 (week 2), n=14
  E3 baseline and trough: 5.11 (14.01)^a pg/ml
[3]; mean (SD), visit C2 (week 4)
  E3 baseline and trough: 0.91(3.63) pg/ml
[3]; mean (SD), visit C3 (week 8)
  E3 baseline and trough: 0.00 pg/mL
[3]; mean (SD), visit C4 (week 12)
  E3 baseline and trough: 0.00 pg/mL
[3]; mean (SD), visit E (day 0, baseline)
  E3 baseline and trough: 0.00 pg/mL
[3]; minimum, visit C1 (week 2)
  E3 baseline and trough: 0.00 pg/mL
[3]; minimum, visit C2 (week 4)
  E3 baseline and trough: 0.00 pg/mL
[3]; minimum, visit C3 (week 8)
  E3 baseline and trough: 0.00 pg/mL
[3]; minimum, visit C4 (week 12)
  E3 baseline and trough: 0.00 pg/mL
[3]; minimum, visit E (day 0, baseline)
  E3 baseline and trough: 0.00 pg/mL
[3]; p < 0.0001
  C max at visit C2 compared to visit E: significantly lower
[3]; visit C2 (day 28)
  subjects without any quantifiable concentration of E3: half
  time of serum E3 increase post-insertion: 6 to 8 h
[3]; visit E (day 0), first application
  time of C max post-insertion: 2 to 3 h
[4]; E3 is an end product of estrogen metabolism
  metabolism into E1 or E2: cannot be transformed back
[4]
  metabolic clearance: rapid
[4]; within a few days to weeks after start of vaginal treatment
  vaginal absorption as the vaginal epithelium matures: decreases
[1]; vaginal 0.25 mg E3 twice weekly, 12 weeks, no PK values determined
  serum E2 or E3: no increase
[1]; vaginal application of conventional 0.50 mg dose of E3, ref [8]–[39]
  serum levels of E3: increased
Breast cancer
  association with risk of BC: neither the use of vaginal E2 and E3 preparations nor oral E3 were associated with a risk of BC
BC cells
  effect on BC cells in vitro: can stimulate
[2]
  nuclear retention time of the receptor complex: < 6 h
